Measurements from patent US11053204B2, “Pyrimidinyloxy benzene derivatives as herbicides” (FMC Corporation, priority 2015, dated 2021).

Tests used:
Format in all cases: in vivo
[1] = tested on: barnyardgrass (Echinochloa crus-galli); assay: Test B flooded paddy test, plant response rating; conditions: 250 g ai/ha; Flood; scale of 0 to 100 where 0 is no effect and 100 is complete control; 13 to 15 days
How it was run: (§1)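 Compound was added to standing water 3 cm above soil, flood maintained, and plants held in a greenhouse before visual scoring against controls at 13 to 15 days.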

[2] = tested on: sedge, umbrella (small-flower umbrella sedge, Cyperus difformis); assay: Test B flooded paddy test, plant response rating; conditions: 250 g ai/ha; Flood; scale of 0 to 100 where 0 is no effect and 100 is complete control; 13 to 15 days
How it was run: as §1

rice (Oryza sativa) = assay: Test B flooded paddy test, plant response rating; conditions: 250 g ai/ha; Flood; scale of 0 to 100 where 0 is no effect and 100 is complete control; 13 to 15 days
How it was run: as §1

[3] = tested on: ducksalad (Heteranthera limosa); assay: Test B flooded paddy test, plant response rating; conditions: 250 g ai/ha; Flood; scale of 0 to 100 where 0 is no effect and 100 is complete control; 13 to 15 days
How it was run: as §1

[4] = tested on: Italian ryegrass (Lolium multiflorum); assay: Test A preemergence, visual injury rating
How it was run: (§2)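 Injury scores run from 0, no effect, to 100, complete control, judged by eye against untreated plants roughly 10 days after treatment. Chemicals carried a surfactant in a non-phytotoxic solvent and went onto loam–sand soil preemergence or onto one- to two-leaf seedlings postemergence.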

kochia (Kochia scoparia) [5] = assay: Test A preemergence, visual injury rating
How it was run: as §2

[6] = tested on: barnyardgrass (Echinochloa crus-galli); assay: Test A preemergence, visual injury rating; conditions: for Plant response rating, Barnyardgrass: 31 g ai/ha, 0 to 100 scale, 0 no effect, 100 complete control; for Barnyardgrass plant response rating: 125 g ai/ha, 0 to 100 scale (0 no effect, 100 complete control)
How it was run: as §2

[7] = tested on: ragweed (common ragweed, Ambrosia elatior); assay: Test A preemergence, visual injury rating
How it was run: as §2

[8] = tested on: pigweed (Amaranthus retroflexus); assay: Test A preemergence, visual injury rating
How it was run: as §2

[9] = tested on: giant foxtail (Setaria faberii); assay: Test A preemergence, visual injury rating
How it was run: as §2

[10] = tested on: Italian ryegrass (Lolium multiflorum); assay: Test A postemergence, visual injury rating; conditions: 0 is no effect, 100 is complete control; for Ryegrass, Italian plant response rating: 0 to 100 scale, approximately 10 days
How it was run: as §2

kochia (Kochia scoparia) [11] = assay: Test A postemergence, visual injury rating; conditions: 0 is no effect, 100 is complete control; for Kochia plant response rating: 0 to 100 scale, approximately 10 days
How it was run: as §2

[12] = tested on: barnyardgrass (Echinochloa crus-galli); assay: Test A postemergence, visual injury rating; conditions: 0 is no effect, 100 is complete control; for Barnyardgrass plant response rating: 0 to 100 scale, approximately 10 days
How it was run: as §2

[13] = tested on: galium (catchweed bedstraw, Galium aparine); assay: Test A postemergence, visual injury rating; conditions: 0 is no effect, 100 is complete control; for Galium plant response rating: 0 to 100 scale, approximately 10 days
How it was run: as §2

[14] = tested on: wheat (Triticum aestivum); assay: Test A postemergence, visual injury rating; conditions: 0 is no effect, 100 is complete control; for Wheat plant response rating: 0 to 100 scale, approximately 10 days
How it was run: as §2

[15] = tested on: ragweed (common ragweed, Ambrosia elatior); assay: Test A postemergence, visual injury rating; conditions: 0 is no effect, 100 is complete control; for Ragweed plant response rating: 0 to 100 scale, approximately 10 days
How it was run: as §2

[16] = tested on: pigweed (Amaranthus retroflexus); assay: Test A postemergence, visual injury rating; conditions: 0 is no effect, 100 is complete control; for Pigweed plant response rating: 0 to 100 scale, approximately 10 days
How it was run: as §2

corn (Zea mays) = assay: Test A postemergence, visual injury rating; conditions: 0 is no effect, 100 is complete control; for Corn plant response rating: 0 to 100 scale, approximately 10 days
How it was run: as §2

[17] = tested on: blackgrass (Alopecurus myosuroides); assay: Test A postemergence, visual injury rating; conditions: 0 is no effect, 100 is complete control; for Blackgrass plant response rating: 0 to 100 scale, approximately 10 days
How it was run: as §2

[18] = tested on: giant foxtail (Setaria faberii); assay: Test A postemergence, visual injury rating; conditions: 0 is no effect, 100 is complete control; for Foxtail, Giant plant response rating: 0 to 100 scale, approximately 10 days
How it was run: as §2

[19] = 31 g ai/ha, 0 to 100 scale, 0 no effect, 100 complete control
[20] = 125 g ai/ha, 0 to 100 scale (0 no effect, 100 complete control)

| SMILES | Plant response rating, Barnyardgrass [1] | Plant response rating, Sedge, Umbrella [2] | Plant response rating, Rice (rice (Oryza sativa)) | Plant response rating, Ducksalad [3] | Plant response rating, Ryegrass, Italian [4, 19] | Plant response rating, Kochia (kochia (Kochia scoparia) [5]; [19]) | Plant response rating, Barnyardgrass [6] | Barnyardgrass plant response rating [6] | Plant response rating, Ragweed [7, 19] | Plant response rating, Pigweed [8, 19] | Plant response rating, Foxtail, Giant [9, 19] | Ryegrass, Italian plant response rating ([10]; 31 g ai/ha) | Barnyardgrass plant response rating ([12]; 31 g ai/ha) | Galium plant response rating ([13]; 31 g ai/ha) | Wheat plant response rating ([14]; 31 g ai/ha) | Ragweed plant response rating ([15]; 31 g ai/ha) | Pigweed plant response rating ([16]; 31 g ai/ha) | Corn plant response rating (corn (Zea mays); 31 g ai/ha) | Blackgrass plant response rating ([17]; 31 g ai/ha) | Foxtail, Giant plant response rating ([18]; 31 g ai/ha) | other results |
| --- | --- | --- | --- | --- | --- | --- | --- | --- | --- | --- | --- | --- | --- | --- | --- | --- | --- | --- | --- | --- | --- |
| O=C(OCCC(F)(F)F)c1cc(Br)ccc1Oc1ncc(Cl)cn1 [Compound 94] | 0 | 0 | 0 | 0 | 0 | 0 | 0 | 0 | 0 | 0 | 0 | 0 | 0 | 0 | 0 | 0 | 0 | 0 | 0 | 0 | Ryegrass, Italian plant response rating [4, 20]: 0; Kochia plant response rating (kochia (Kochia scoparia) [5]; [20]): 0; Ragweed plant response rating [7, 20]: 0; Pigweed plant response rating [8, 20]: 0; Foxtail, Giant plant response rating [9, 20]: 0; Ryegrass, Italian plant response rating ([10]; 125 g ai/ha): 0; Kochia plant response rating (kochia (Kochia scoparia) [11]; 31 g ai/ha): 0; Kochia plant response rating (kochia (Kochia scoparia) [11]; 125 g ai/ha): 0; Barnyardgrass plant response rating ([12]; 125 g ai/ha): 0; Galium plant response rating ([13]; 125 g ai/ha): 0; Wheat plant response rating ([14]; 125 g ai/ha): 0; Ragweed plant response rating ([15]; 125 g ai/ha): 0; Pigweed plant response rating ([16]; 125 g ai/ha): 0; Corn plant response rating (corn (Zea mays); 125 g ai/ha): 0; Blackgrass plant response rating ([17]; 125 g ai/ha): 0; Foxtail, Giant plant response rating ([18]; 125 g ai/ha): 0 |
| O=C(OCC(F)(F)C(F)(F)F)c1c(F)cccc1Oc1ncc(Br)cn1 [Compound 4] | 0 | 0 | 0 | 0 | 0 | 0 | 0 | 0 | 0 | 0 | 0 | 0 | 0 | 0 | 0 | 0 | 0 | 0 | 0 | 0 | Ryegrass, Italian plant response rating [4, 20]: 0; Kochia plant response rating (kochia (Kochia scoparia) [5]; [20]): 0; Ragweed plant response rating [7, 20]: 0; Pigweed plant response rating [8, 20]: 0; Foxtail, Giant plant response rating [9, 20]: 0; Ryegrass, Italian plant response rating (0 to 100 scale) ([10]; 125 g ai/ha): 0; Kochia plant response rating (kochia (Kochia scoparia) [11]; 31 g ai/ha): 0; Kochia plant response rating (0 to 100 scale) (kochia (Kochia scoparia) [11]; 125 g ai/ha): 0; Barnyardgrass plant response rating (0 to 100 scale) ([12]; 125 g ai/ha): 0; Galium plant response rating (0 to 100 scale) ([13]; 125 g ai/ha): 0; Wheat plant response rating (0 to 100 scale) ([14]; 125 g ai/ha): 0; Ragweed plant response rating (0 to 100 scale) ([15]; 125 g ai/ha): 0; Pigweed plant response rating (0 to 100 scale) ([16]; 125 g ai/ha): 0; Corn plant response rating (0 to 100 scale) (corn (Zea mays); 125 g ai/ha): 0; Blackgrass plant response rating (0 to 100 scale) ([17]; 125 g ai/ha): 0; Foxtail, Giant plant response rating (0 to 100 scale) ([18]; 125 g ai/ha): 0 |
| CCCCCOC(=O)c1c(Br)cccc1Oc1ncc(Cl)cn1 [Compound 101] | 0 | 0 | 0 | 0 | 0 | 0 | 0 | 10 | 0 | 0 | 0 | 0 | 10 | 10 | 0 | 0 | 20 | 0 | 0 | 0 | Plant response rating, Ryegrass, Italian [4, 20]: 0; Plant response rating, Kochia (kochia (Kochia scoparia) [5]; [20]): 0; Plant response rating, Ragweed [7, 20]: 0; Plant response rating, Pigweed [8, 20]: 0; Plant response rating, Foxtail, Giant [9, 20]: 40; Ryegrass, Italian plant response rating ([10]; 125 g ai/ha): 10; Kochia plant response rating (kochia (Kochia scoparia) [11]; 31 g ai/ha): 0; Kochia plant response rating (kochia (Kochia scoparia) [11]; 125 g ai/ha): 20; Barnyardgrass plant response rating ([12]; 125 g ai/ha): 20; Galium plant response rating ([13]; 125 g ai/ha): 40; Wheat plant response rating ([14]; 125 g ai/ha): 0; Ragweed plant response rating ([15]; 125 g ai/ha): 0; Pigweed plant response rating ([16]; 125 g ai/ha): 60; Corn plant response rating (corn (Zea mays); 125 g ai/ha): 0; Blackgrass plant response rating ([17]; 125 g ai/ha): 0; Foxtail, Giant plant response rating ([18]; 125 g ai/ha): 20 |
| O=C(OCC(Cl)CCl)c1c(Br)cccc1Oc1ncc(Cl)cn1 (centres unmarked) [Compound 97] | 0 | 75 | 0 | 70 | 0 | 0 | 0 | 10 | 0 | 0 | 40 | 20 | 10 | 100 | 0 | 10 | 20 | 10 | 0 | 10 | Plant response rating, Ryegrass, Italian [4, 20]: 0; Plant response rating, Kochia (kochia (Kochia scoparia) [5]; [20]): 0; Plant response rating, Ragweed [7, 20]: 0; Plant response rating, Pigweed [8, 20]: 20; Plant response rating, Foxtail, Giant [9, 20]: 70; Ryegrass, Italian plant response rating ([10]; 125 g ai/ha): 30; Kochia plant response rating (kochia (Kochia scoparia) [11]; 125 g ai/ha): 40; Barnyardgrass plant response rating ([12]; 125 g ai/ha): 20; Galium plant response rating ([13]; 125 g ai/ha): 100; Wheat plant response rating ([14]; 125 g ai/ha): 0; Ragweed plant response rating ([15]; 125 g ai/ha): 20; Pigweed plant response rating ([16]; 125 g ai/ha): 50; Corn plant response rating (corn (Zea mays); 125 g ai/ha): 10; Blackgrass plant response rating ([17]; 125 g ai/ha): 20; Foxtail, Giant plant response rating ([18]; 125 g ai/ha): 60 |
